# Experimental data reported in publication doi:10.1101/322404v1, “Discovery of a novel stereospecific β-hydroxyacyl-CoA lyase/thioesterase shared by three metabolic pathways in Mycobacterium tuberculosis” (biorxiv, 2018).
# Legend:
# Rv2498c [1] = target: T1, Rv2498c (Mycobacterium tuberculosis, UniProt P9WPE1)
# T1 construct: gene citE
# Rv2498c [2] = target: T1, Rv2498c; remark: listed apart in the source
# Rv2498c [3] = target: T1, Rv2498c; remark: listed apart in the source
# Rv2498c [4] = target: T1, Rv2498c; remark: listed apart in the source
# T1 sequence (P9WPE1 whole entry): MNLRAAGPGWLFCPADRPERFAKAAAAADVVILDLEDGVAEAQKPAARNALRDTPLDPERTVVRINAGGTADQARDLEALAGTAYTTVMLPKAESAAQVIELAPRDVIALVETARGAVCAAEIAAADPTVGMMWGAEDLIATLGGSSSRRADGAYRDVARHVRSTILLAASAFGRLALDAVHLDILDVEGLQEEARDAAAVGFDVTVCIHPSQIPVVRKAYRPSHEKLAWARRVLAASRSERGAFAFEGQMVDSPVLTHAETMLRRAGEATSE
smiles,measurement,setting,value
CC(C)(COP(=O)(O)OP(=O)(O)OC[C@H]1O[C@@H](n2cnc3c(N)ncnc32)[C@H](O)[C@@H]1OP(=O)(O)O)[C@@H](O)C(=O)NCCC(=O)NCCSC(=O)C[C@](C)(O)CC(=O)O [(R)-HMG-CoA],HPLC lyase assay and 1H NMR of products,Rv2498c [1],we found that Rv2498c is a lyase specific for the (R)-HMG-CoA
CC(C)(COP(=O)(O)OP(=O)(O)OC[C@H]1O[C@@H](n2cnc3c(N)ncnc32)[C@H](O)[C@@H]1OP(=O)(O)O)[C@@H](O)C(=O)NCCC(=O)NCCSC(=O)C[C@](C)(O)C(=O)O [(S)-citramalyl-CoA],"X-ray crystal structure, 1.83 A",Rv2498c [2],two citramalyl-CoA molecules
CC(C)(COP(=O)(O)OP(=O)(O)OC[C@H]1O[C@@H](n2cnc3c(N)ncnc32)[C@H](O)[C@@H]1OP(=O)(O)O)[C@@H](O)C(=O)NCCC(=O)NCCSC(=O)C[C@H](O)C(=O)O [(S)-malyl-CoA],HPLC thioesterase assay,Rv2498c [3],Rv2498c was found to subsequently catalyse the hydrolysis of the thioester bond of (S)-malyl-CoA
CC(C)(COP(=O)(O)OP(=O)(O)OC[C@H]1O[C@@H](n2cnc3c(N)ncnc32)[C@H](O)[C@@H]1OP(=O)(O)O)[C@@H](O)C(=O)NCCC(=O)NCCS [CoA],"X-ray crystal structure, 1.72 A (6ARB) and 2.04 A (6AS5)",Rv2498c [4],"A magnesium ion, coordinated pyruvate, and CoA molecule were observed in the active sites"
